# According to patent US9643991B2, “Process for preparing a novel crystalline form of emamectin benzoate and use the same” (ROTAM AGROCHEM INTERNATIONAL CO., LTD, priority 2015, dated 2017):
# Key:
# [1] = Residue of diluted SG formulations passed through the wet sieve; type: physicochemical
# Procedure: The procedure in Example 5 was repeated by using emamectin benzoate crystalline forms A and B mentioned in U.S. Pat. No. 6,486,195.
# SG samples prepared in Examples 5 and 6 were diluted with water and their residues were compared by passing through the wet sieve.
# [2] = Stability of the crystalline modification during prolonged storage; type: physicochemical
# [3] = cited from earlier work
# [4] = system: Lepidoptera pole larvae and many other pests; conditions: cited from earlier work
Substance,"Residue, Dilution factor 100 ([1]; SG samples of Examples 5 and 6 diluted with water, wet sieve, dilution factor 100)","Residue, Dilution factor 1000 ([1]; SG samples of Examples 5 and 6 diluted with water, wet sieve, dilution factor 1000)","Stability after dilution ([1]; after dilution, compared to other crystal forms)",Conversion to other crystalline modifications [2],Solubility in acetone ([3]; acetone),Solubility in ethanol ([3]; ethanol),Solubility in hexane ([3]; hexane),Solubility in methanol ([3]; methanol),Solubility in water ([3]; water),"Insecticidal activity higher than other avermectin pesticides ([4]; compared with abamectin, doramectin, ivermectin)",Effective dose ([4]; very low doses)
4″-deoxy-4″-epi-methylamino avermectin B1a/B1b [Crystalline forms V],No residue,No residue,extremely stable after dilution,does not convert to other crystalline modifications,,,,,,,
4″-deoxy-4″-epi-methylamino avermectin B1a/B1b [Emamectin benzoate],,,,,soluble,soluble,insoluble,soluble,slightly soluble,1-3 orders of magnitude,0.084-2 g/ha
